# Assay results: ChEMBL document CHEMBL1201862, “PubChem BioAssay data set” (2004)
#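 Compound exposure: 48 hours, 5 concentrations, 96-well plates. The concentration for 50% growth inhibition is given as GI50.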 Active and inactive are the calls of the source. Rule as the data show it: active = GI50 up to about 1.1 µM and inactive = higher.
# What was measured:
# Assay in all cases: NCI anticancer screen, dose series, 48 h
# 786-0 = test system: 786-0
# A498 = test system: A498
# A549 = test system: A549
# ACHN = test system: ACHN
# BT-549 = test system: BT-549
# CAKI-1 = test system: CAKI-1
# CCRF-CEM = test system: CCRF-CEM
# COLO 205 = test system: COLO 205
# DU-145 = test system: DU-145
# EKVX = test system: EKVX
# HCC 2998 = test system: HCC 2998
# HCT-116 = test system: HCT-116
# HCT-15 = test system: HCT-15
# HL-60 = test system: HL-60
# HOP-62 = test system: HOP-62
# HOP-92 = test system: HOP-92
# HT-29 = test system: HT-29
# Hs-578T = test system: Hs-578T
# IGROV-1 = test system: IGROV-1
# K562 = test system: K562
# KM12 = test system: KM12
# LOX IMVI = test system: LOX IMVI
# M14 = test system: M14
# MCF7 = test system: MCF7
# MDA-MB-231 = test system: MDA-MB-231
# MDA-MB-435 = test system: MDA-MB-435
# MDA-N = test system: MDA-N
# MOLT-4 = test system: MOLT-4
# Malme-3M = test system: Malme-3M
# NCI-H226 = test system: NCI-H226
# NCI-H23 = test system: NCI-H23
# NCI-H460 = test system: NCI-H460
# NCI/ADR-RES = test system: NCI/ADR-RES
# OVCAR-3 = test system: OVCAR-3
# OVCAR-4 = test system: OVCAR-4
# OVCAR-5 = test system: OVCAR-5
# OVCAR-8 = test system: OVCAR-8
# PC-3 = test system: PC-3
# RPMI-8226 = test system: RPMI-8226
# RXF 393 = test system: RXF 393
# SF-268 = test system: SF-268
# SF-295 = test system: SF-295
# SF-539 = test system: SF-539
# SK-MEL-28 = test system: SK-MEL-28
# SK-MEL-2 = test system: SK-MEL-2
# SK-MEL-5 = test system: SK-MEL-5
# SK-OV-3 = test system: SK-OV-3
# SN12C = test system: SN12C
# SNB-19 = test system: SNB-19
# SNB-75 = test system: SNB-75
# SR = test system: SR
# SW-620 = test system: SW-620
# T47D = test system: T47D
# TK-10 = test system: TK-10
# U-251 = test system: U-251
# UACC-257 = test system: UACC-257
# UACC-62 = test system: UACC-62
# UO-31 = test system: UO-31
compound,measurement,setting,value
Brc1ccc2c(-c3csc(-c4c[nH]c5cc(Br)ccc45)n3)c[nH]c2c1,GI50,786-0,22 µM (inactive)
same,GI50,A498,37.1 µM (inactive)
same,GI50,A549,19.5 µM (inactive)
same,GI50,ACHN,44 µM (inactive)
same,GI50,BT-549,> 64.1 µM (inactive)
same,GI50,CAKI-1,43.6 µM (inactive)
same,GI50,CCRF-CEM,10.2 µM (inactive)
same,GI50,COLO 205,26.8 µM (inactive)
same,GI50,DU-145,19.5 µM (inactive)
same,GI50,EKVX,35.3 µM (inactive)
same,GI50,HCC 2998,43.8 µM (inactive)
same,GI50,HCT-116,14.5 µM (inactive)
same,GI50,HCT-15,12.4 µM
same,GI50,HL-60,5.69 µM (inactive)
same,GI50,HOP-62,37.2 µM (inactive)
same,GI50,HOP-92,31.1 µM (inactive)
same,GI50,HT-29,15.8 µM (inactive)
same,GI50,Hs-578T,23 µM (inactive)
same,GI50,IGROV-1,17 µM (inactive)
same,GI50,K562,4.75 µM (inactive)
same,GI50,KM12,11.8 µM (inactive)
same,GI50,LOX IMVI,20.9 µM (inactive)
same,GI50,M14,17.7 µM (inactive)
same,GI50,MCF7,11.8 µM (inactive)
same,GI50,MDA-MB-231,21 µM (inactive)
same,GI50,MDA-MB-435,5.27 µM (inactive)
same,GI50,MDA-N,5.43 µM (inactive)
same,GI50,MOLT-4,12.1 µM (inactive)
same,GI50,Malme-3M,28.4 µM (inactive)
same,GI50,NCI-H226,30.5 µM (inactive)
same,GI50,NCI-H23,18.5 µM (inactive)
same,GI50,NCI-H460,18.9 µM (inactive)
same,GI50,NCI/ADR-RES,16 µM (inactive)
same,GI50,OVCAR-3,52.1 µM (inactive)
same,GI50,OVCAR-4,31 µM (inactive)
same,GI50,OVCAR-5,26.6 µM (inactive)
same,GI50,OVCAR-8,21 µM (inactive)
same,GI50,PC-3,23.7 µM (inactive)
same,GI50,RPMI-8226,17.6 µM (inactive)
same,GI50,RXF 393,23.4 µM (inactive)
same,GI50,SF-268,31.2 µM (inactive)
same,GI50,SF-295,9.31 µM (inactive)
same,GI50,SF-539,19.6 µM (inactive)
same,GI50,SK-MEL-28,46.6 µM (inactive)
same,GI50,SK-MEL-2,> 83 µM (inactive)
same,GI50,SK-MEL-5,42.2 µM (inactive)
same,GI50,SK-OV-3,18.5 µM (inactive)
same,GI50,SN12C,37 µM (inactive)
same,GI50,SNB-19,21.3 µM (inactive)
same,GI50,SNB-75,25.1 µM (inactive)
same,GI50,SR,5.61 µM (inactive)
same,GI50,SW-620,16 µM (inactive)
same,GI50,T47D,20.2 µM (inactive)
same,GI50,TK-10,30.8 µM (inactive)
same,GI50,U-251,15.8 µM (inactive)
same,GI50,UACC-257,> 65.9 µM (inactive)
same,GI50,UACC-62,40.5 µM (inactive)
same,GI50,UO-31,55.3 µM (inactive)
COc1cc2cc(C(=O)N3CC(CCl)c4c3cc(NC(=O)OCc3ccc([N+](=O)[O-])cc3)c3ccccc43)[nH]c2c(OC)c1OC (stereo not given),GI50,786-0,0.785 µM (active)
same,GI50,A498,< 0.01 µM (active)
same,GI50,A549,8.65 µM (inactive)
same,GI50,ACHN,< 0.0116 µM (active)
same,GI50,BT-549,97.3 µM (inactive)
same,GI50,CAKI-1,0.153 µM (active)
same,GI50,CCRF-CEM,8.91 µM (inactive)
same,GI50,COLO 205,> 100 µM (inactive)
same,GI50,DU-145,0.108 µM (active)
same,GI50,EKVX,43 µM (inactive)
same,GI50,HCC 2998,0.0226 µM (active)
same,GI50,HCT-116,14.7 µM (inactive)
same,GI50,HCT-15,> 50.2 µM
same,GI50,HL-60,0.11 µM (active)
same,GI50,HOP-62,16.3 µM (inactive)
same,GI50,HOP-92,> 45.7 µM (inactive)
same,GI50,HT-29,> 54.2 µM (inactive)
same,GI50,Hs-578T,> 53.1 µM (inactive)
same,GI50,IGROV-1,> 43.9 µM (inactive)
same,GI50,KM12,> 42.5 µM (inactive)
same,GI50,LOX IMVI,38.7 µM (inactive)
same,GI50,M14,29 µM (inactive)
same,GI50,MCF7,36.1 µM (inactive)
same,GI50,MDA-MB-231,44.9 µM (inactive)
same,GI50,MDA-MB-435,> 100 µM (inactive)
same,GI50,MDA-N,> 100 µM (inactive)
same,GI50,MOLT-4,9.73 µM (inactive)
same,GI50,Malme-3M,> 100 µM (inactive)
same,GI50,NCI-H226,> 100 µM (inactive)
same,GI50,NCI-H23,0.158 µM (active)
same,GI50,NCI-H460,< 0.0173 µM (active)
same,GI50,NCI/ADR-RES,3.67 µM (inactive)
same,GI50,OVCAR-3,> 100 µM (inactive)
same,GI50,OVCAR-4,> 100 µM (inactive)
same,GI50,OVCAR-5,29.4 µM (inactive)
same,GI50,OVCAR-8,1.1 µM (active)
same,GI50,PC-3,> 60 µM (inactive)
same,GI50,RPMI-8226,13.3 µM (inactive)
same,GI50,RXF 393,14 µM (inactive)
same,GI50,SF-268,24.6 µM (inactive)
same,GI50,SF-295,17.2 µM (inactive)
same,GI50,SF-539,> 48.6 µM (inactive)
same,GI50,SK-MEL-28,> 100 µM (inactive)
same,GI50,SK-MEL-2,> 69.2 µM (inactive)
same,GI50,SK-MEL-5,46.7 µM (inactive)
same,GI50,SK-OV-3,< 0.01 µM (active)
same,GI50,SN12C,> 100 µM (inactive)
same,GI50,SNB-19,> 100 µM (inactive)
same,GI50,SNB-75,20.5 µM (inactive)
same,GI50,SR,0.0432 µM (active)
same,GI50,SW-620,28.2 µM (inactive)
same,GI50,T47D,24.3 µM (inactive)
same,GI50,TK-10,0.327 µM (active)
same,GI50,U-251,38.5 µM (inactive)
same,GI50,UACC-257,> 71.3 µM (inactive)
same,GI50,UACC-62,> 38 µM (inactive)
same,GI50,UO-31,0.125 µM (active)
